Results from patent US20190375708A1 (VenatoRx Pharmaceuticals, Inc., priority 2018, published 2019).

Experiments:
[1] = system: HBV replication in HepAD38 cells; assay: Anti-HBV replication assay in HepAD38 cells (QPCR of extracellular HBV DNA); type: cell-based, HBV (genotype D, serotype ayw); conditions: Hepatitis B virus, 168 h, 7 days incubation, extracellular HBV DNA by QPCR, read-out: Anti-HBV EC50
Outline: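 Read-out is QPCR of HBV DNA released into culture supernatant, converted to percent of vehicle control and fitted to give EC50. Cells were HepAD38 induced by tetracycline removal and dosed […] for 7 days.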

[2] = In vitro cytotoxicity assay (MTT cell viability) in HepG2 cells; type: cell-based, human; conditions: human
Outline: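 HepG2 seeded overnight, then 7-day compound exposure (30 μM–1.0 nM, half-log steps), 37 °C. MTT 3-4 h, DMSO solubilization, A492. % of vehicle → CC50, 4-PL fit.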

Structure (SMILES) | EC50 [1] [nM] | CC50 at 7 days [2] [nM]
Cc1noc(C(C)NC(=O)C(=O)c2cc(C(=O)Nc3ccc(F)c(C)c3)c3n2CCCC3)n1 (stereo not drawn) [Example 414, N-(4-fluoro-3-methylphenyl)-3-(2-((1-(3-cmethyl-1,2,4-oxadiazol-5-yl)ethyl)amino)-2-oxoacetyl)-5,6,7,8-tetrahydroindolizine-1-carboxamide] | 50 to 499 | > 30000
Cc1cc(NC(=O)c2c(C)c(C(=O)C(=O)N[C@H]3CCc4nc(N)sc4C3)n(C)c2C)ccc1F [Example 75, (S)-5-(2-((2-amino-4,5,6,7-tetrahydrobenzo[d]thiazol-6-yl)amino)-2-oxoacetyl)-N-(4-fluoro-3-methylphenyl)-1,2,4-trimethyl-1H-pyrrole-3-carboxamide] | < 50 | 5000 to 30000
Cc1cc(NC(=O)c2c(C)c(C(=O)C(=O)NCc3nc(C(F)(F)F)no3)n(C)c2C)ccc1F [Example 243, N-(4-fluoro-3-methylphenyl)-1,2,4-trimethyl-5-(2-oxo-2-(((3-(trifluoromethyl)-1,2,4-oxadiazol-5-yl)methyl)amino)acetyl)-1H-pyrrole-3-carboxamide] | < 50 | 5000 to 30000
Cc1cc(NC(=O)c2c(C)c(C(=O)C(=O)N[C@]3(C)C[C@@H](O)C3)n(C)c2C)ccc1F [Example 619] | < 50 | > 30000
Cc1cc(NC(=O)c2c(C)c(C(=O)C(=O)N[C@@H]3C[C@H](O)[C@@H](O)[C@H]3O)n(C)c2C)ccc1F [Example 712, N-(4-fluoro-3-methylphenyl)-1,2,4-trimethyl-5-(2-oxo-2-(((1R,2S,3R,4S)-2,3,4-trihydroxycyclopentyl)amino)acetyl)-1H-pyrrole-3-carboxamide] | < 50 | > 30000
Cc1nc(C2(NC(=O)C(=O)c3c(C)c(C(=O)Nc4ccc(F)c(C)c4)c(C)n3C)CCCCC2)no1 [Example 632, N-(4-fluoro-3-methylphenyl)-1,2,4-trimethyl-5-(2-((1-(5-methyl-1,2,4-oxadiazol-3-yl)cyclohexyl)amino)-2-oxoacetyl)-1H-pyrrole-3-carboxamide] | < 50 | > 30000
Cc1cc(NC(=O)c2c(C)c(C(=O)C(=O)NCCN3CCNC(=O)C3)n(C)c2C)ccc1F [Example 300, N-(4-fluoro-3-methylphenyl)-1,2,4-trimethyl-5-(2-oxo-2-((2-(3-oxopiperazin-1-yl)ethyl)amino)acetyl)-1H-pyrrole-3-carboxamide] | 50 to 499 | > 30000
Cc1cc(NC(=O)c2c(C)c(C(=O)C(=O)NOC(C)(C)CO)n(C)c2C)ccc1F [Example 156, N-(4-fluoro-3-methylphenyl)-5-(2-(((1-hydroxy-2-methylpropan-2-yl)oxy)amino)-2-oxoacetyl)-1,2,4-trimethyl-1H-pyrrole-3-carboxamide] | < 50 | > 30000
Cc1c(C(=O)Nc2cc(F)c(F)c(F)c2)c(Cl)c(C(=O)C(=O)NCC(C)(C)O)n1C [Example 372, 4-chloro-5-(2-((2-hydroxy-2-methylpropyl)amino)-2-oxoacetyl)-1,2-dimethyl-N-(3,4,5-trifluorophenyl)-1H-pyrrole-3-carboxamide] | < 50 | 500 to 4990
Cc1cc(NC(=O)c2c(Cl)c(C(=O)C(=O)NCc3cnc(N)s3)n3c2CCC3)ccc1F [Example 552, 5-(2-(((2-aminothiazol-5-yl)methyl)amino)-2-oxoacetyl)-6-chloro-N-(4-fluoro-3-methylphenyl)-2,3-dihydro-1H-pyrrolizine-7-carboxamide] | < 50 | 5000 to 30000
Cc1cc(NC(=O)c2c(C)c(C(=O)C(=O)NC3CCOCC3)n(C)c2C)ccc1F [Example 247, N-(4-fluoro-3-methylphenyl)-1,2,4-trimethyl-5-(2-oxo-2-((tetrahydro-2H-pyran-4-yl)amino)acetyl)-1H-pyrrole-3-carboxamide] | < 50 | 5000 to 30000
Cc1cc(NC(=O)c2c(C)c(C(=O)C(=O)NC(C)(C)CF)n(C)c2C)ccc1F [Example 6, 5-(2-((1-fluoro-2-methylpropan-2-yl)amino)-2-oxoacetyl)-N-(4-fluoro-3-methylphenyl)-1,2,4-trimethyl-1H-pyrrole-3-carboxamide] | < 50 | > 30000
COC(=O)[C@H](NC(=O)C(=O)c1c(C)c(C(=O)Nc2ccc(F)c(C)c2)c(C)n1C)C(C)(C)C [Example 24, methyl (R)-2-(2-(4-((4-fluoro-3-methylphenyl)carbamoyl)-1,3,5-trimethyl-1H-pyrrol-2-yl)-2-oxoacetamido)-3,3-dimethylbutanoate] | < 50 | > 30000
Cc1cc(NC(=O)c2c(C)c(C(=O)C(=O)NC[C@H](C)O)n(C)c2C)ccc1F [Example 218, (S)-N-(4-fluoro-3-methylphenyl)-5-(2-((2-hydroxypropyl)amino)-2-oxoacetyl)-1,2,4-trimethyl-1H-pyrrole-3-carboxamide] | < 50 | 5000 to 30000
Cc1cc(NC(=O)c2c(C)c(C(=O)C(=O)NC3(C)CC(F)(F)C3)n(C)c2C)ccc1F [Example 238, 5-(2-((3,3-difluoro-1-methylcyclobutyl)amino)-2-oxoacetyl)-N-(4-fluoro-3-methylphenyl)-1,2,4-trimethyl-1H-pyrrole-3-carboxamide] | < 50 | > 30000
Cc1cc(NC(=O)c2c(C)c(C(=O)C(=O)Nc3ccc(F)nc3)n(C)c2C)cnc1F [Example 340, N-(6-fluoro-5-methylpyridin-3-yl)-5-(2-((6-fluoropyridin-3-yl)amino)-2-oxoacetyl)-1,2,4-trimethyl-1H-pyrrole-3-carboxamide] | 500 to 1000 | > 30000
Cc1c(C(=O)Nc2ccnc(F)c2)c(C)n(C)c1C(=O)C(=O)NC12CC3CC(CC(O)(C3)C1)C2 [Example 188, N-(2-fluoropyridin-4-yl)-5-(2-(((1r,3s,5R,7S)-3-hydroxyadamantan-1-yl)amino)-2-oxoacetyl)-1,2,4-trimethyl-1H-pyrrole-3-carboxamide] | 50 to 499 | > 30000
CNC(=O)[C@@H](NC(=O)C(=O)c1c(C)c(C(=O)Nc2ccc(F)c(C)c2)c(C)n1C)C1CCCC1 [Example 125, (S)-5-(2-((1-cyclopentyl-2-(methylamino)-2-oxoethyl)amino)-2-oxoacetyl)-N-(4-fluoro-3-methylphenyl)-1,2,4-trimethyl-1H-pyrrole-3-carboxamide] | < 50 | 500 to 4990
Cc1cc(NC(=O)c2c(C)c(C(=O)C(=O)NC[C@@H](C)O)n(C)c2C)ccc1F [Example 220, (R)-N-(4-ffluoro-3-methylphenyl)-5-(2-((2-hydroxypropyl)amino)-2-oxoacetyl)-1,2,4-trimethyl-1H-pyrrole-3-carboxamide] | < 50 | 5000 to 30000
Cc1cc(NC(=O)c2c(Cl)c(C(=O)C(=O)NC(C)(C)CO)n(C)c2C)ccc1F [Example 365, 4-chloro-N-(4-fluoro-3-methylphenyl)-5-(2-((1-hydroxy-2-methylpropan-2-yl)amino)-2-oxoacetyl)-1,2-dimethyl-1H-pyrrole-3-carboxamide] | < 50 | > 30000
Cc1cc(NC(=O)c2c(C)c(C(=O)C(=O)NC3(CN4CCN(c5ccc(Cl)cc5)CC4)CC3)n(C)c2C)ccc1F [Example 661, 5-(2-((1-((4-(4-chlorophenyl)piperazin-1-yl)methyl)cyclopropyl)amino)-2-oxoacetyl)-N-(4-fluoro-3-methylphenyl)-1,2,4-trimethyl-1H-pyrrole-3-carboxamide] | < 50 | 5000 to 30000
Cc1c(C(=O)Nc2cccc(C(F)F)c2)c(C)n(C)c1C(=O)C(=O)N[C@]1(C)C[C@@H](O)C1 [Example 720, N-(3-(difluoromethyl)phenyl)-5-(2-(((1r,3r)-3-hydroxy-1-methylcycloutyl)amino)-2-oxoacetyl)-1,2,4-trimethyl-1H-pyrrole-3-carboxamide] | < 50 | > 30000
CCOC(=O)[C@@H](CO)NC(=O)C(=O)c1c(C)c(C(=O)Nc2ccc(F)c(C)c2)c(C)n1C [Example 26, ethyl (2-(4-((4-fluoro-3-methylphenyl)carbamoyl)-1,3,5-trimethyl-1H-pyrrol-2-yl)-2-oxoacetyl)-D-serinate] | < 50 | > 30000
Cc1cc(NC(=O)c2cc(C(=O)C(=O)NC(C)(C)C)n3c2CN(S(C)(=O)=O)CC3)ccc1F [Example 589, 6-(2-(tert-butylamino)-2-oxoacetyl)-N-(4-fluoro-3-methylphenyl)-2-(methylsulfonyl)-1,2,3,4-tetrahydropyrrolo[1,2-a]pyrazine-8-carboxamide] | 500 to 1000 | > 30000
Cc1cc(NC(=O)c2c(C)c(C(=O)C(=O)N[C@H]3CC[C@@](O)(C(F)(F)F)CC3)n(C)c2C)ccc1F [Example 207, N-(4-fluoro-3-methylphenyl)-5-(2-(((1r,4r)-4-hydroxy-4-(trifluoromethyl)cyclohexyl)amino)-2-oxoacetyl)-1,2,4-trimethyl-1H-pyrrole-3-carboxamide] | < 50 | > 30000
CCn1c(C)c(C(=O)Nc2ccc(F)c(C)c2)c(C)c1C(=O)C(=O)NC(C)(C)CO [Example 98, 1-ethyl-N-(4-fluoro-3-methylphenyl)-5-(2-((1-hydroxy-2-methylpropan-2-yl)amino)-2-oxoacetyl)-2,4-dimethyl-1H-pyrrole-3-carboxamide] | < 50 | > 30000
Cc1cc(NC(=O)c2c(C)c(C(=O)C(=O)NC3(C)CC[C@@H](O)[C@@H](O)C3)n(C)c2C)ccc1F (stereo partly drawn) [Example 702, 5-(2-(((3S,4R)-3,4-dihydroxy-1-methylcyclohexyl)amino)-2-oxoacetyl)-N-(4-fluoro-3-methylphenyl)-1,2,4-trimethyl-1H-pyrrole-3-carboxamide] | < 50 | > 30000
